The source of these data is patent US9174992B2, “Heterobicyclic compounds” (Amgen Inc., priority 2012, dated 2015).

For orientation: IC50 means the concentration that inhibits the measured activity by half.

The target of this assay is PDE10A (UniProt Q9Y233). The experiment in a line: PDE10 enzyme inhibition, IMAP TR-FRET assay (Example A, MPDE10A7 Enzyme Activity and Inhibition). It counts as biochemical. The following applies: approximate IC50 value, Table 10. As to the method: Enzyme Activity. An IMAP TR-FRET assay was used to analyze the enzyme activity (Molecular Devices Corp., Sunnyvale Calif.). 10 μL of serial diluted PDE10A (BPS Bioscience, San Diego, Calif.) or tissue homogenate was incubated with equal volumes of diluted fluorescein labeled cAMP or cGMP for 90 min in 384-well Polypropylene assay plates (Greiner, Monroe, N.C.) at room temperature. After incubation, the reaction was stopped by adding 55 μL of diluted binding reagents and was incubated for 4 hours to overnight at room temperature. The plates were read on an Envision (Perkin Elmer, Waltham, Mass.) for time resolved fluorescence resonance energy transfer. The data were analyzed with Genedata Screener® (Lexington, Mass.).
Enzyme Inhibition. To check the inhibition profile, 0.2 μL of serial diluted compounds were incubated with 10 μL of diluted PDE10 enzyme (BPS Bioscience, San Diego, Calif.) or tissue homogenate in a 384-well Polypropylene assay plate (Greiner, Monroe, N.C.) for 60 min at room temperature. After incubation, 10 μL of diluted fluorescein labeled cAMP or cGMP substrate were added and incubated for 90 min at room temperature. The reaction was stopped by adding 55 μL of diluted binding reagents and plates were read on an Envision (Perkin Elmer, Waltham, Mass.) for time resolved fluorescence resonance energy transfer. The data were analyzed with Genedata Screener® (Lexington, Mass.).
IC50 curves were generated from the raw data collected from the […] and fitted with a four-parameter logistic equation using in-house data analysis tool, Activity Base.

Regarding `CC1(C)C(=O)N([C@H]2C[C@H](Nc3nc4ccccc4s3)C2)c2nccnc21` [Example 34, 5-(trans-3-(benzo[d]thiazol-2-ylamino)cyclobutyl)-7,7-dimethyl-5H-pyrrolo[2,3-b]pyrazin-6(7H)-one], half-maximal inhibition (IC50) was put at 0.107 nM. This counts as sub-nanomolar. `O=C1N([C@H]2C[C@H](Nc3nc4ccccc4s3)C2)c2ncccc2C12CCC2` [Example 35, 1′-(trans-3-(benzo[d]thiazol-2-ylamino)cyclobutyl)spiro[cyclobutane-1,3′-pyrrolo[2,3-b]pyridin]-2′(1′H)-one]: it took 0.115 nM to reach half-maximal inhibition (IC50). Under `O=C1N([C@H]2C[C@H](Nc3nc4ccccc4s3)C2)c2ncccc2C12CCCC2` [Example 36, 1′-(Trans-3-(benzo[d]thiazol-2-ylamino)cyclobutyl)spiro[cyclopentane-1,3′-pyrrolo[2,3-b]pyridin]-2′(1′H)-one] stands 0.134 nM; under `O=C1N([C@H]2C[C@H](Nc3nc4ccccc4s3)C2)c2ncccc2C12CCOCC2` [Example 37, 1′-(Trans-3-(benzo[d]thiazol-2-ylamino)cyclobutyl)-2,3,5,6-tetrahydrospiro[pyran-4,3′-pyrrolo[2,3-b]pyridin]-2′(1′H)-one], 0.14 nM. Take `Cc1ccc(N[C@H]2C[C@H](N3C(=O)C(C)(C)c4cccnc43)C2)nc1` [Example 38, 3,3-Dimethyl-1-(trans-3-(5-methylpyridin-2-yl)amino)cyclobutyl-1H-pyrrolo[2,3-b]pyridin-2(3H)-one]: the IC50 worked out at 0.166 nM. The IC50 values of the last two compounds are within 1.5-fold of each other. `COc1ccc(N[C@H]2C[C@H](N3C(=O)C(C)(C)c4cccnc43)C2)nc1` [Example 39] displayed an IC50 of 0.212 nM. With `CC1(C)C(=O)N([C@H]2C[C@H](Nc3ccc(Br)cn3)C2)c2ncccc21` [Example 40, 1-(Trans-3-((5-bromopyridin-2-yl)amino)cyclobutyl)-3,3-dimethyl-1H-pyrrolo[2,3-b]pyridin-2(3H)-one], the IC50 stood at 0.263 nM. This IC50 and that of the compound before are within 1.5-fold of each other. `CC1(C)C(=O)N([C@H]2C[C@H](Nc3ccc(C4CC4)cn3)C2)c2ncccc21` [Example 41, 1-(Trans-3-((5-cyclopropylpyridin-2yl)amino)cyclobutyl)-3,3-dimethyl-1H-pyrrolo[2,3-b]pyridin-2(3H)-one] showed an IC50 of 0.329 nM. For the compound `CC1(C)C(=O)N([C@H]2C[C@H](Nc3ccc(Cl)cn3)C2)c2ncccc21` [Example 42, 1-(Trans-3-((5-chloropyridin-2-yl)amino)cyclobutyl)-3,3-dimethyl-1H-pyrrolo[2,3-b]pyridin-2(3H)-one], the 50% inhibitory concentration (IC50) turned out to be 0.856 nM. This IC50 is about 2.6-fold higher than that of the compound before.

In turn, `CC(=O)c1ccc(N[C@H]2C[C@H](N3C(=O)C(C)(C)c4cccnc43)C2)nc1` [Example 43, 1-(trans-3-((5-acetylpyridin-2-yl)amino)cyclobutyl)-3,3-dimethyl-1H-pyrrolo[2,3-b]pyridin-2(3H)-one] returned an IC50 of 1.57 nM. Consider `O=C1Cc2cccnc2N1[C@H]1C[C@H](Nc2nc3ccccc3s2)C1` [Example 44, 1-(trans-3-(benzo[d]thiazol-2-ylamino)cyclobutyl)-1H-pyrrolo[2,3-b]pyridin-2(3H)-one], for which the IC50 was 2.44 nM. Consider `COc1cccnc1N[C@H]1C[C@H](N2C(=O)C(C)(C)c3cccnc32)C1` [Example 45, 1-(Trans-3-((3-methoxypyridin-2-yl)amino)cyclobutyl)-3,3-dimethyl-1H-pyrrolo[2,3-b]pyridin-2(3H)-one], for which the IC50 was 2.52 nM.

Regarding `CC1(C)C(=O)N([C@H]2C[C@H](Nc3ccc(C(F)(F)F)cn3)C2)c2ncccc21` [Example 46, 1-(Trans-3-((5-trifuoromethylpyridin-2-yl)amino)cyclobutyl)-3,3-dimethyl-1H-pyrrolo[2,3-b]pyridin-2(3H)-one], inhibition was half-maximal at 2.53 nM (IC50). The IC50 values of the last two compounds are within 1.5-fold of each other. Compound `CCc1cnc(N[C@H]2C[C@H](N3C(=O)C(C)(C)c4cccnc43)C2)nc1` [Example 47, 1-(trans-3-((5-ethylpyrimidin-2-yl)amino)cyclobutyl)-3,3-dimethyl-1H-pyrrolo[2,3-b]pyridin-2(3H)-one] gave a concentration for half-maximal inhibition (IC50) of 2.64 nM. Compound `Cc1cnc(N[C@H]2C[C@H](N3C(=O)C(C)(C)c4cccnc43)C2)nc1` [Example 48, 1-(trans-3-((5-methylpyrimidin-2-yl)amino)cyclobutyl)-3,3-dimethyl-1H-pyrrolo[2,3-b]pyridin-2(3H)-one] came in with an IC50 of 3.46 nM. This IC50 and that of the compound before are within 1.5-fold of each other. Under `CC1(C)C(=O)N([C@H]2C[C@H](Nc3ccc(Cl)cn3)C2)c2nccnc21` [Example 49] stands 3.88 nM; under `COc1ccc(N(c2ccc(OC)cn2)[C@H]2C[C@H](N3C(=O)C(C)(C)c4cccnc43)C2)nc1` [Example 50, 1-(trans-3-(BIS(5-methoxypyridin-2-yl)amino)cyclobutyl)-3,3-dimethyl-1H-pyrrolo[2,3-b]pyridin-2(3H)-one], 4.63 nM. In the case of `Cc1ccnc(N[C@H]2C[C@H](N3C(=O)C(C)(C)c4cccnc43)C2)c1` [Example 51, 1-(Trans-3-((4-methylpyridin-2-yl)amino)cyclobutyl)-3,3-dimethyl-1H-pyrrolo[2,3-b]pyridin-2(3H)-one] it was 4.85 nM. Regarding `CC1(C)C(=O)N([C@H]2C[C@H](Nc3ncccc3F)C2)c2ncccc21` [Example 52, 1-(Trans-3-((3-fluoropyridin-2-yl)amino)cyclobutyl)-3,3-dimethyl-1H-pyrrolo[2,3-b]pyridin-2(3H)-one], the IC50 turned out to be 5.69 nM.

The compound `Cc1cccnc1N[C@H]1C[C@H](N2C(=O)C(C)(C)c3cccnc32)C1` [Example 53, 1-(Trans-3-((3-methylpyridin-2-yl)amino)cyclobutyl)-3,3-dimethyl-1H-pyrrolo[2,3-b]pyridin-2(3H)-one] had an IC50 of 5.7 nM. The compound `CC1(C)C(=O)N([C@H]2C[C@H](Nc3ccc(F)cn3)C2)c2ncccc21` [Example 54, 1-(Trans-3-((5-fluoropyridin-2-yl)amino)cyclobutyl)-3,3-dimethyl-1H-pyrrolo[2,3-b]pyridin-2(3H)-one] showed an IC50 of 6.47 nM.

The compound `CC1(C)C(=O)N([C@H]2C[C@H](Nc3nccs3)C2)c2ncccc21` [Example 55, 3,3-Dimethyl-1-(trans-3-(thiazol-2-ylamino)cyclobutyl)-1H-pyrrolo[2,3-b]pyridine-2(3H)-one] gave a half-inhibitory concentration (IC50) of 7.43 nM. The IC50 values of the last two compounds are within 1.5-fold of each other.

`CC(=O)Nc1ccc(N[C@H]2C[C@H](N3C(=O)C(C)(C)c4cccnc43)C2)nc1` [Example 56, N-(6-((Trans-3-(3,3-dimethyl-2-oxo-2,3-dihydro-1H-pyrrolo[2,3-b]pyridine-1-yl)cyclobutyl)amino)pyridine-3-yl)acetamide] registered an IC50 of 8.42 nM. As for `CC1(C)C(=O)N([C@H]2C[C@H](Nc3ncccc3Cl)C2)c2ncccc21` [Example 57], half-maximal inhibition (IC50) required 11 nM. The IC50 values of the last two compounds are within 1.5-fold of each other. `COc1ccnc(N[C@H]2C[C@H](N3C(=O)C(C)(C)c4cccnc43)C2)n1` [Example 58, 1-(trans-3-((4-methoxypyrimidin-2-yl)amino)cyclobutyl)-3,3-dimethyl-1H-pyrrolo[2,3-b]pyridin-2(3H)-one] displayed a 50% inhibitory concentration (IC50) of 13 nM. Consider `CC1(C)C(=O)N([C@H]2C[C@H](Nc3ccc(C#N)cn3)C2)c2ncccc21` [Example 59, 1-(Trans-3-((5-cyanopyridin-2-yl)amino)cyclobutyl)-3,3-dimethyl-1H-pyrrolo[2,3-b]pyridin-2(3H)-one], for which the half-inhibitory concentration (IC50) was 15.9 nM. Compound `CC1(C)C(=O)N([C@H]2C[C@H](Nc3ncc(Br)cn3)C2)c2ncccc21` [Example 60, 1-(Trans-3-((5-bromopyrimidin-2-yl)amino)cyclobutyl)-3,3-dimethyl-1H-pyrrolo[2,3-b]pyridin-2(3H)-one] had an IC50 of 19.3 nM.
